Measurements reported in patent US11267811B2, “Small molecule inhibitors of galectin-3” (BRISTOL-MYERS SQUIBB COMPANY, priority 2017, dated 2022).

These molecules were tested against His-tagged recombinant human Gal-3 (hGal-3) (Homo sapiens (Human), UniProt P17931) (assay: Gal-3 HTRF assay (His-tagged hGal-3 binding to B-ASF)). Conditions: HTRF, hGal-3 15 nM, B-ASF 15 nM; read-out: hGal-3 IC50.
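Further: compounds preincubated 30 min with hGal-3, then 1 h with B-ASF, detection via terbium anti-His antibody and streptavidin d2. Control with B-ASF counts as full signal, omitting B-ASF as background.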

His-tagged recombinant human Gal-3 (hGal-3), sequence (P17931 whole entry): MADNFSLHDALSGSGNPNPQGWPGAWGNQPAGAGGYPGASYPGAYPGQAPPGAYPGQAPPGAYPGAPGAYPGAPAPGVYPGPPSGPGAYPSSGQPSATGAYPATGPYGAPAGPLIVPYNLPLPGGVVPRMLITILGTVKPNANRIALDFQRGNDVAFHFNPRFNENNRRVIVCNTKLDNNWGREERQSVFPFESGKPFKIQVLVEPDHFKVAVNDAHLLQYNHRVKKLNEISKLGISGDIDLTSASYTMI

`OC[C@H]1O[C@@H](c2nncn2-c2ccc(-c3cnco3)cc2)[C@H](O)[C@@H](n2cc(-c3cc(F)c(F)c(F)c3)nn2)[C@H]1O` [Example 82] and `OC[C@H]1O[C@@H](c2nncn2-c2ccc(F)cc2)[C@H](O)[C@@H](n2cc(-c3cc(F)c(F)c(F)c3)nn2)[C@H]1O` [Example 85] are within 1.5-fold of each other in IC50: 580 nM for the first, 440 nM for the second.

Compared with `OC[C@H]1O[C@@H](c2nncn2-c2ccc(Cl)cc2Cl)[C@H](O)[C@@H](n2cc(-c3cc(F)c(F)c(F)c3)nn2)[C@H]1O` [Example 83], `OC[C@H]1O[C@@H](c2nncn2-c2cc(Cl)ccc2Cl)[C@H](O)[C@@H](n2cc(-c3cc(F)c(F)c(F)c3)nn2)[C@H]1O` [Example 135] is 30-fold lower in IC50: 900 nM for the first, 30 nM for the second. The second is the more potent here.

Going from `CC(=O)Nc1cccc(-n2cnnc2[C@@H]2O[C@H](CO)[C@H](O)[C@H](n3cc(-c4cc(F)c(F)c(F)c4)nn3)[C@H]2O)c1` [Example 84] to `CS(=O)(=O)Nc1cccc(-n2cnnc2[C@@H]2O[C@H](CO)[C@H](O)[C@H](n3cc(-c4cc(F)c(F)c(F)c4)nn3)[C@H]2O)c1` [Example 113], the IC50 falls from 900 nM to 480 nM (1.9-fold).

`COc1ccccc1-n1cnnc1[C@@H]1O[C@H](CO)[C@H](O)[C@H](n2cc(-c3cc(F)c(F)c(F)c3)nn2)[C@H]1O` [Example 86] and `OC[C@H]1O[C@@H](c2nncn2-c2ccccc2Cl)[C@H](O)[C@@H](n2cc(-c3cc(F)c(F)c(F)c3)nn2)[C@H]1O` [Example 89] are within 1.5-fold of each other in IC50: 380 nM for the first, 460 nM for the second.

`OC[C@H]1O[C@@H](c2nncn2-c2ccc(Cl)c(C(F)(F)F)c2)[C@H](O)[C@@H](n2cc(-c3cc(F)c(F)c(F)c3)nn2)[C@H]1O` [Example 87] and `OC[C@H]1O[C@@H](c2nncn2-c2ccc(Cl)c(Cl)c2)[C@H](O)[C@@H](n2cc(-c3cc(F)c(F)c(F)c3)nn2)[C@H]1O` [Example 131, (2S,3R,4R,5R,6R)-2-(4-(3,4-dichlorophenyl)-4H-1,2,4-triazol-3-yl)-6-(hydroxymethyl)-4-(4-(3,4,5-trifluorophenyl)-1H-1,2,3-triazol-1-yl)tetrahydro-2H-pyran-3,5-diol] are the same in IC50: 100 nM for the first, 100 nM for the second.

`OC[C@H]1O[C@@H](c2nncn2-c2ccc(Br)cc2)[C@H](O)[C@@H](n2cc(-c3cc(F)c(F)c(F)c3)nn2)[C@H]1O` [Example 88] and `COc1ccc(-n2cnnc2[C@@H]2O[C@H](CO)[C@H](O)[C@H](n3cc(-c4cc(F)c(F)c(F)c4)nn3)[C@H]2O)cc1` [Example 98] are within 1.5-fold of each other in IC50: 360 nM for the first, 450 nM for the second.

First: OC[C@H]1O[C@@H](c2nncn2-c2ccc(Cc3ccncc3)cc2)[C@H](O)[C@@H](n2cc(-c3cc(F)c(F)c(F)c3)nn2)[C@H]1O [Example 90]
Second: OC[C@H]1O[C@@H](c2nncn2-c2ccc(-n3ccnc3)cc2)[C@H](O)[C@@H](n2cc(-c3cc(F)c(F)c(F)c3)nn2)[C@H]1O [Example 117]
The IC50 of the first is 2.8-fold lower: 520 nM for the first, 1460 nM for the second. The first is the more potent here.

Going from `CN(C)c1ccc(-n2cnnc2[C@@H]2O[C@H](CO)[C@H](O)[C@H](n3cc(-c4cc(F)c(F)c(F)c4)nn3)[C@H]2O)cc1` [Example 91] to `CN(C)S(=O)(=O)c1ccc(-n2cnnc2[C@@H]2O[C@H](CO)[C@H](O)[C@H](n3cc(-c4cc(F)c(F)c(F)c4)nn3)[C@H]2O)cc1` [Example 115], the IC50 rises from 690 nM to 11100 nM (16-fold). The first is the more potent here.

Compared with `OC[C@H]1O[C@@H](c2nncn2-c2cccc(OC(F)(F)F)c2)[C@H](O)[C@@H](n2cc(-c3cc(F)c(F)c(F)c3)nn2)[C@H]1O` [Example 93], `OC[C@H]1O[C@@H](c2nncn2-c2ccc(OC(F)(F)F)cc2)[C@H](O)[C@@H](n2cc(-c3cc(F)c(F)c(F)c3)nn2)[C@H]1O` [Example 94] is 5.9-fold higher in IC50: 190 nM for the first, 1130 nM for the second.

Compared with `OC[C@H]1O[C@@H](c2nncn2-c2ccc3ccccc3c2)[C@H](O)[C@@H](n2cc(-c3cc(F)c(F)c(F)c3)nn2)[C@H]1O` [Example 95], `OC[C@H]1O[C@@H](c2nncn2-c2ccc3ccncc3c2)[C@H](O)[C@@H](n2cc(-c3cc(F)c(F)c(F)c3)nn2)[C@H]1O` [Example 126] is 2.1-fold higher in IC50: 130 nM for the first, 270 nM for the second. The first is the more potent here.

Compared with `OC[C@H]1O[C@@H](c2nncn2-c2ccc3c(c2)OCCO3)[C@H](O)[C@@H](n2cc(-c3cc(F)c(F)c(F)c3)nn2)[C@H]1O` [Example 96], `O=S1(=O)Cc2ccc(-n3cnnc3[C@@H]3O[C@H](CO)[C@H](O)[C@H](n4cc(-c5cc(F)c(F)c(F)c5)nn4)[C@H]3O)cc2C1` [Example 99] is 3.1-fold higher in IC50: 290 nM for the first, 890 nM for the second.

`OC[C@H]1O[C@@H](c2nncn2-c2ccccc2F)[C@H](O)[C@@H](n2cc(-c3cc(F)c(F)c(F)c3)nn2)[C@H]1O` [Example 97] and `OC[C@H]1O[C@@H](c2nncn2-c2ccccc2OC(F)(F)F)[C@H](O)[C@@H](n2cc(-c3cc(F)c(F)c(F)c3)nn2)[C@H]1O` [Example 102] are within 1.5-fold of each other in IC50: 350 nM for the first, 300 nM for the second.

`OC[C@H]1O[C@@H](c2nncn2-c2cccc(-c3ccccc3)c2)[C@H](O)[C@@H](n2cc(-c3cc(F)c(F)c(F)c3)nn2)[C@H]1O` [Example 100] and `OC[C@H]1O[C@@H](c2nncn2-c2cccc(OCc3ccccc3)c2)[C@H](O)[C@@H](n2cc(-c3cc(F)c(F)c(F)c3)nn2)[C@H]1O` [Example 108] are within 1.5-fold of each other in IC50: 470 nM for the first, 370 nM for the second.

Going from `OC[C@H]1O[C@@H](c2nncn2-c2cc(Cl)cc(Cl)c2)[C@H](O)[C@@H](n2cc(-c3cc(F)c(F)c(F)c3)nn2)[C@H]1O` [Example 101] to `OC[C@H]1O[C@@H](c2nncn2-c2cc(Cl)cc(C(F)(F)F)c2)[C@H](O)[C@@H](n2cc(-c3cc(F)c(F)c(F)c3)nn2)[C@H]1O` [Example 118], the IC50 rises from 80 nM to 160 nM (2-fold).

Compared with `CC(C)Oc1ccc(-n2cnnc2[C@@H]2O[C@H](CO)[C@H](O)[C@H](n3cc(-c4cc(F)c(F)c(F)c4)nn3)[C@H]2O)cc1` [Example 103], `CC(C)Oc1cccc(-n2cnnc2[C@@H]2O[C@H](CO)[C@H](O)[C@H](n3cc(-c4cc(F)c(F)c(F)c4)nn3)[C@H]2O)c1` [Example 105] is 2.1-fold lower in IC50: 700 nM for the first, 330 nM for the second. The second is the more potent here.

Compared with `OC[C@H]1O[C@@H](c2nncn2-c2ccc(Oc3ccccc3)cc2)[C@H](O)[C@@H](n2cc(-c3cc(F)c(F)c(F)c3)nn2)[C@H]1O` [Example 104], `OC[C@H]1O[C@@H](c2nncn2-c2ccc(-n3cccc3)cc2)[C@H](O)[C@@H](n2cc(-c3cc(F)c(F)c(F)c3)nn2)[C@H]1O` [Example 109] is 1.6-fold lower in IC50: 820 nM for the first, 520 nM for the second. The second is the more potent here.

Compared with `O=S(=O)(Nc1nccs1)c1ccc(-n2cnnc2[C@@H]2O[C@H](CO)[C@H](O)[C@H](n3cc(-c4cc(F)c(F)c(F)c4)nn3)[C@H]2O)cc1` [Example 106], `Cc1nnc(NS(=O)(=O)c2ccc(-n3cnnc3[C@@H]3O[C@H](CO)[C@H](O)[C@H](n4cc(-c5cc(F)c(F)c(F)c5)nn4)[C@H]3O)cc2)s1` [Example 110] is 2-fold higher in IC50: 760 nM for the first, 1550 nM for the second.

Going from `OC[C@H]1O[C@@H](c2nncn2-c2ccc3ncccc3c2)[C@H](O)[C@@H](n2cc(-c3cc(F)c(F)c(F)c3)nn2)[C@H]1O` [Example 107] to `OC[C@H]1O[C@@H](c2nncn2-c2cnc3ccccc3c2)[C@H](O)[C@@H](n2cc(-c3cc(F)c(F)c(F)c3)nn2)[C@H]1O` [Example 123], the IC50 rises from 50 nM to 100 nM (2-fold).

`OC[C@H]1O[C@@H](c2nncn2-c2ccc(-c3nnn[nH]3)cc2)[C@H](O)[C@@H](n2cc(-c3cc(F)c(F)c(F)c3)nn2)[C@H]1O` [Example 111] and `OC[C@H]1O[C@@H](c2nncn2-c2cccc(-c3nnn[nH]3)c2)[C@H](O)[C@@H](n2cc(-c3cc(F)c(F)c(F)c3)nn2)[C@H]1O` [Example 112] are within 1.5-fold of each other in IC50: 820 nM for the first, 640 nM for the second.

Going from `CNS(=O)(=O)Cc1ccc(-n2cnnc2[C@@H]2O[C@H](CO)[C@H](O)[C@H](n3cc(-c4cc(F)c(F)c(F)c4)nn3)[C@H]2O)cc1` [Example 114] to `NS(=O)(=O)c1ccc(-n2cnnc2[C@@H]2O[C@H](CO)[C@H](O)[C@H](n3cc(-c4cc(F)c(F)c(F)c4)nn3)[C@H]2O)cc1` [Example 116], the IC50 rises from 260 nM to 670 nM (2.6-fold).

Going from `OC[C@H]1O[C@@H](c2nncn2Cc2ccc(Cl)c(Cl)c2)[C@H](O)[C@@H](n2cc(-c3cc(F)c(F)c(F)c3)nn2)[C@H]1O` [Example 119] to `OC[C@H]1O[C@@H](c2nncn2Cc2cccs2)[C@H](O)[C@@H](n2cc(-c3cc(F)c(F)c(F)c3)nn2)[C@H]1O` [Example 127], the IC50 falls from 2790 nM to 1280 nM (2.2-fold). The second is the more potent here.

Going from `OC[C@H]1O[C@@H](c2nncn2-c2ccc3ncsc3c2)[C@H](O)[C@@H](n2cc(-c3cc(F)c(F)c(F)c3)nn2)[C@H]1O` [Example 120] to `Cc1nc2ccc(-n3cnnc3[C@@H]3O[C@H](CO)[C@H](O)[C@H](n4cc(-c5cc(F)c(F)c(F)c5)nn4)[C@H]3O)cc2s1` [Example 132], the IC50 falls from 30 nM to 20 nM (1.5-fold).

`O=C1CCc2cc(-n3cnnc3[C@@H]3O[C@H](CO)[C@H](O)[C@H](n4cc(-c5cc(F)c(F)c(F)c5)nn4)[C@H]3O)ccc2N1` [Example 121] and `Cn1c(=O)sc2cc(-n3cnnc3[C@@H]3O[C@H](CO)[C@H](O)[C@H](n4cc(-c5cc(F)c(F)c(F)c5)nn4)[C@H]3O)ccc21` [Example 136] are within 1.5-fold of each other in IC50: 260 nM for the first, 310 nM for the second.

First: OC[C@H]1O[C@@H](c2nncn2-c2ccc3nccnc3c2)[C@H](O)[C@@H](n2cc(-c3cc(F)c(F)c(F)c3)nn2)[C@H]1O [Example 124]
Second: COc1cc(-n2cnnc2[C@@H]2O[C@H](CO)[C@H](O)[C@H](n3cc(-c4cc(F)c(F)c(F)c4)nn3)[C@H]2O)ccn1 [Example 133]
The IC50 of the first is 2-fold higher: 400 nM for the first, 200 nM for the second. The second is the more potent here.

Compared with `CS(=O)(=O)c1cccc(-n2cnnc2[C@@H]2O[C@H](CO)[C@H](O)[C@H](n3cc(-c4cc(F)c(F)c(F)c4)nn3)[C@H]2O)c1` [Example 128], `CS(=O)(=O)c1cc(-n2cnnc2[C@@H]2O[C@H](CO)[C@H](O)[C@H](n3cc(-c4cc(F)c(F)c(F)c4)nn3)[C@H]2O)ccc1F` [Example 129] is 1.9-fold higher in IC50: 310 nM for the first, 600 nM for the second.

Compared with `OC[C@H]1O[C@@H](c2nncn2Cc2nc3ccccc3s2)[C@H](O)[C@@H](n2cc(-c3cc(F)c(F)c(F)c3)nn2)[C@H]1O` [Example 130], `COc1cccc(-n2cnnc2[C@@H]2O[C@H](CO)[C@H](O)[C@H](n3cc(-c4cc(F)c(F)c(F)c4)nn3)[C@H]2O)n1` [Example 134] is 1.8-fold higher in IC50: 320 nM for the first, 570 nM for the second. The first is the more potent here.

First: Cc1nc2cc(F)c(-n3cnnc3[C@@H]3O[C@H](CO)[C@H](O)[C@H](n4cc(-c5cc(F)c(F)c(F)c5)nn4)[C@H]3O)cc2s1 [Example 137]
Second: Cc1ncc(Cl)cc1-n1cnnc1[C@@H]1O[C@H](CO)[C@H](O)[C@H](n2cc(-c3cc(F)c(F)c(F)c3)nn2)[C@H]1O [Example 138]
The IC50 of the first is 2-fold higher: 80 nM for the first, 40 nM for the second. The second is the more potent here.
